Drawing on PubChem BioAssay (NCI), this text covers TGI and GI50 for 28 molecules.

Common to all, as to test: NCI anticancer screen, dose series, 48 h
Test [1] has as its system LOX IMVI melanoma.
Test [2] deals with K-562 leukemia.
Test [3] deals with KM12 colon.
The subject of test [4] is SN12C renal.
Test [5] deals with OVCAR-4 ovarian.
Test [6] relates to SW-620 colon.
In test [7] the test system is RXF 393 renal.
The test system of test [8] is DU-145 prostate.
In test [9] the test system is MDA-MB-231 breast.
In test [10] the test system is BT-549 breast.

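Where inhibition never reached the appropriate level, the endpoint shown equals the highest concentration tested. Otherwise, values were interpolated linearly from a five-concentration, 48-hour dose response in 96-well plates. The concentration for 50% growth inhibition is given as GI50. TGI marks complete inhibition of growth.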

For `CC(CC(=O)N1C(=O)C(C)(C)[C@@H](O)[C@H]1CC(C)C(Cl)(Cl)Cl)C(Cl)(Cl)Cl` (stereo not given in full), the TGI in [1], in test [2], in [3], in test [4], in test [5] and in [6] was above 100 µM in each case.
As to `COc1cc(/C=C(\NC(=O)c2ccccc2)c2nc3ccc4c(c3[nH]2)C(=O)c2ccccc2C4=O)cc(OC)c1OC`, the TGI in test [1], in test [2], in test [3], in [4], in [5] and in [6] was above 100 µM each time. The molecule also registered a TGI in test [7] of 86.8 µM.
Turning to `CC1(C)S[C@@H]2[C@H](N3C(=O)c4ccccc4C3=O)CN2[C@H]1NC(=O)N[C@@H]1N2C[C@@H](N3C(=O)c4ccccc4C3=O)[C@H]2SC1(C)C`, the TGI in test [1], in [2], in test [3], in test [4], in test [5] and in test [8] was above 100 µM each time. Moreover, the figures for the TGI in [6], in [7] and in [9] were above 100 µM, 82.1 µM and above 100 µM, respectively.
Consider `NC(=NCc1ccccc1)C(N=Nc1ccccc1)C(=O)NCc1ccccc1` (stereo not given), for which the GI50 is 8.36 µM in test [1]; 2.04 µM in test [3]; 22.6 µM in [4]; 18.5 µM in [5]; 2.28 µM in [8]; 1.83 µM in test [6]. Further, the GI50 in [7] was 12.9 µM; in test [9], 14.4 µM. Moreover, the TGI in [1] turned out to be 24.3 µM; in test [3], 4.65 µM; in [4] it was 87 µM; in test [5], 45.1 µM; in [8], 6.01 µM; in test [6], 3.62 µM. The figures for the TGI in test [7] and in [9] were 27 µM and 35.2 µM, respectively.
For `COc1ccc(/C=C2\CN(C(=O)C(Cl)Cl)C/C(=C\c3ccc(OC)cc3)C2=O)cc1`, the GI50 is 0.251 µM in [1]; 0.343 µM in [2]; 0.332 µM in [3]; 2.32 µM in test [5]; 0.351 µM in test [6]; 1.11 µM in test [7]. Moreover, the GI50 in test [10] is 2.19 µM. In addition, the TGI in test [1] is 0.766 µM; in [2], above 100 µM; in test [3], 1.16 µM; in test [5], above 100 µM; in [6], 1.78 µM; in test [7], 2.37 µM. This molecule came in with a TGI in test [10] of 8.13 µM.
As for `COc1cc2c(c(OC)c1OC)-c1ccc(O)cc1[C@@H](NC(C)=O)CC2`, the GI50 in test [1] is 0.0803 µM; in [2] it was 0.0376 µM; in [3] it was 0.0358 µM; in test [4] it was 0.0897 µM; in test [5] it was 0.0706 µM; in [8], 0.0365 µM. The GI50 in test [6] is 0.0409 µM; in test [10], 0.152 µM; in test [9], 0.0689 µM. For the same molecule, the TGI in test [1] is above 100 µM; in test [2], above 100 µM; in test [3] it was 0.224 µM; in test [4], above 100 µM; in test [5], above 100 µM; in [8], 0.168 µM. Further, the TGI in test [6], in [10] and in test [9] was above 100 µM in each case.
On to `O=C1C(Cl)=C(Nc2ccc(Nc3ccccc3)c(NC3=C(Cl)C(=O)c4ccccc4C3=O)c2)C(=O)c2ccccc21`, for which the GI50 was 4.12 µM in [1]; 2.97 µM in test [4]; 14.9 µM in test [8]; 3.09 µM in test [7]; 1.27 µM in test [9]. Also, the TGI in test [1] was above 100 µM; in test [4], 13.7 µM; in test [8] it was 28.4 µM; in test [7], 14.2 µM; in [9], 6.02 µM.
Turning to `O=C1C(=O)N(c2ccc(Cl)cc2)C(=O)C(=O)C1c1nc2ccccc2o1`, the TGI in [1], in test [2], in test [3], in test [4], in test [5] and in [6] was above 100 µM in each case. Also, the TGI in test [7] is above 100 µM.
As for `CC1=CC(C)=NN=C(N)N1S(=O)(=O)c1cc(C)c(Cl)cc1SCc1ccccc1`, the GI50 in test [1] is 58.4 µM; in [2], 9.22 µM; in [3], 34.6 µM; in [4], 32.2 µM; in test [5], 11.5 µM; in test [8], 73.4 µM. For the same molecule, the values for the GI50 in [6], in [10] and in test [9] were 24.8 µM, 17.8 µM and above 100 µM, respectively. Moreover, the TGI in test [1], in test [2], in test [3], in [4], in test [5] and in test [8] was above 100 µM each time. Besides, the TGI in test [6], in test [10] and in [9] was above 100 µM each time.
Take `Oc1ccc(Nc2ccc3ccccc3c2)cc1`: the GI50 in test [1] was 8.25 µM; in test [2] it was 2.96 µM; in [3] it was 2.94 µM; in test [4] it was 10 µM; in [5] it was 8.64 µM; in test [8], 4.87 µM. Besides, the GI50 in test [6] was 5.86 µM; in [7], 24.1 µM; in test [9], 4.06 µM. The TGI in test [1] is 21.9 µM; in test [2], 15.9 µM; in test [3], 10 µM; in [4], above 100 µM; in test [5], above 100 µM; in test [8], 19.2 µM. The TGI was 19.5 µM in test [6], above 100 µM in [7] and 27.8 µM in test [9].
Consider `O=S(=O)([O-])c1ccc(N=Cc2ccccc2[O-])cc1.O=S(=O)([O-])c1ccc(N=Cc2ccccc2[O-])cc1.[Co+2]`, for which the GI50 in [2], in test [3], in test [4], in test [6] and in test [7] was above 100 µM throughout. Also, the TGI in test [2], in test [3], in [4], in test [6] and in test [7] was above 100 µM each time.
Consider `CN1CN(C2OC(CO)C(O)C2O)c2nc(N)[nH]c(=O)c21` (stereo not given), for which the TGI in [2], in [3], in test [4], in test [5], in [6] and in test [7] was above 100 µM throughout.
With `COc1cc(-c2nccc3cc(OC)c(OC)cc23)ccc1O`, the TGI in test [1], in [2], in [3], in [4], in test [5] and in [6] was above 100 µM in each case.
Turning to `CCC[CH2][Sn]([CH2]CCC)([O]c1cccc2cccnc12)[O]c1cccc2cccnc12`, the GI50 in test [1] was 0.162 µM; in test [2], 0.0973 µM; in test [4], 0.177 µM; in test [5], 0.229 µM; in test [6] it was 0.179 µM. Besides, the TGI in test [1] was 0.313 µM; in test [2], 0.523 µM; in test [4] it was 0.403 µM; in [5], 0.46 µM; in test [6], 0.429 µM.
`CCCCCOCC(O)CO` (stereo not given): the TGI in [1], in [3], in test [4], in test [5], in test [6] and in test [7] was above 100 µM each time.
Consider `CC(C)N(O)C(=N)c1ccccc1`, for which the TGI in test [1], in test [3], in test [4], in [5], in test [6] and in test [7] was above 100 µM throughout.
Turning to `Oc1ccc(O)c(-c2cn3c(n2)SCC3)c1`, the GI50 is 17.5 µM in [1]; 7.24 µM in test [2]; 16.9 µM in test [3]; 13.9 µM in test [4]; 3.19 µM in test [6]; 18.4 µM in [7]. In addition, the GI50 was 11.8 µM in test [10] and 11.7 µM in test [9]. The TGI in [1] is 31.5 µM; in test [2] it was above 100 µM; in test [3], 38.2 µM; in [4], 29.2 µM; in test [6] it was 8.17 µM; in [7], 36.2 µM. Moreover, the TGI in [10] is 25.7 µM; in test [9], 26.5 µM.
In the case of `C[C@]12CCC(=O)C(OC(=O)c3ccc([N+](=O)[O-])cc3)=C1CCC2=O`, the TGI in test [1], in test [3], in test [4], in test [5], in test [6] and in test [7] was above 100 µM each time.
Regarding `N#CC(C(=O)C(=O)Nc1ccccc1)c1ccccc1` (stereo not given), the TGI in [1], in test [2], in [3], in test [4] and in test [6] was above 100 µM throughout.
For the molecule `C=C(CO)CC(O)c1cc(OC)ccc1OC` (stereo not given), the TGI in test [1], in test [2], in [3], in test [4], in [5] and in test [6] was above 100 µM each time. Besides, the TGI in [7] was above 100 µM.
For the molecule `Cc1ccc(-c2nc3ccccc3c(=O)n2NCC2(O)OCC(O)C(O)C2O)cc1` (stereo not given), the TGI in [1], in test [2], in test [3], in test [4], in test [5] and in test [6] was above 100 µM throughout. This molecule also came in with a TGI in test [7] above 100 µM.
With `CC(C)C12Cc3c(ccc4ccccc34)OC1(C)Oc1ccc3ccccc3c1C2` (stereo not given), the TGI in test [1], in test [2], in test [3], in test [4], in test [5] and in [6] was above 100 µM in each case. Besides, the TGI in test [7] is above 100 µM.
Regarding `COC(OC)c1cc2c(cc1C=O)OCO2`, the TGI in test [2], in test [3], in test [4], in test [5], in test [6] and in test [7] was above 100 µM throughout.
Regarding `O=C(O)C[C@@H](Cl)[C@H](NC(=O)OCc1ccccc1)C(=O)O`, the TGI in [1], in test [2], in test [3], in test [4], in test [5] and in test [6] was above 100 µM throughout. The same molecule yielded a TGI in [7] above 100 µM.
Take `COC(=O)c1ccccc1N(C(=O)c1ccccc1)c1ccccc1C`: the TGI in test [1], in test [2], in [3], in [4], in [5] and in test [6] was above 100 µM each time. This molecule returned a TGI in test [7] of 92.1 µM.
`N#CC12CCC1C1CCCCC12N1CCSCC1` (stereo not given): the TGI in test [2] was above 100 µM; in test [3] it was above 100 µM; in test [4] it was above 100 µM; in [5], above 10 µM; in [6], above 100 µM; in test [7], 86.5 µM.
`N.N.N.N.N.NC(=O)[O-].[Co+3].[I-]`: the GI50 in test [1], in [2], in test [3], in test [4], in test [5] and in [6] was above 100 µM in each case. Also, the TGI in test [1], in test [2], in test [3], in test [4], in [5] and in test [6] was above 100 µM each time.
With `COc1cc(OC)c(C(=O)c2cccs2)cc1N`, the TGI in test [1], in test [2], in [3], in test [4], in test [5] and in [6] was above 100 µM each time. This molecule had a TGI in test [7] above 100 µM.
